What was measured:
MCF-7 cells = experiment: Western-Blot analysis of Hsp90 client proteins and Hsp70; format: cell-based; conditions: MCF-7, 36 h
Description: MCF-7 cells were pretreated with various concentrations of the test compounds. After stimulation, cells were collected; lysed in lysis buffer [50 mM Tris-Cl, pH 7.6, 150 Mm NaCl, 1 mM EDTA, 1% (m/v) Nonidet P-40 (NP-40), 0.2 mM Phenylmethanesulfonyl fluoride (PMSF), 0.1 mM NaF and 1.0 mM dithiothreitol (DTT)], and the supernatant was obtained after centrifugation at 13,000× g for 10 min at 4°C. The concentration of protein in the supernatants was measured by the bicinchoninic acid (BCA) assay. Then equal amounts of protein (50 μg) were separated by 8% or 10% sodium dodecyl sulfate polyacrylamide gel electrophoresis (SDS-PAGE) and transferred onto the PVDF membranes (Millipore, Billerica, MA). The blots were incubated with specific antibodies against the indicated primary antibodies overnight at 4°C followed by IRDyeTM800-conjugated secondary antibody for 1 h at 37°C. Detection was performed by the Odyssey Infrared Imaging System (LI-COR; Lincoln, NE). All blots were stripped and incubated with polyclonal anti-β-actin antibody to ascertain equal loading of proteins.

MCF-7 = experiment: Cell morphological assessment (DAPI staining, apoptosis); format: cell-based
Description: (§1) To detect morphological evidence of apoptosis, HCT116, MCF-7 and SKBR3 cell nuclei were visualized following DNA staining with the fluorescent dye DAPI. Briefly, cells were seeded at a concentration of 1×10^5 cells/well in 6-well tissue culture plates and treated with indicated concentration of S13. At the end of incubation, the morphology of cells was monitored under an inverted light microscope. Cells were then fixed with 4% paraform for 20 min and washed with PBS, and then incubated with DAPI (1 μg/ml) for 10 min. After washed with PBS, cells were observed using fluorescent microscopy (Olympus, Japan) with a peak excitation wave length of 340 nm.

HCT116 = experiment: as above; format: cell-based; conditions: HCT116, 2, 5, 10 μM, 24 h
Description: as §1

SKBR3 = experiment: as above; format: cell-based; conditions: SK-BR3, 2, 5, 10 μM, 24 h
Description: as §1

Hsp90 [1] = molecular target: T1, Hsp90 (Homo sapiens, UniProt P07900); experiment: Malachite green assay of Hsp90 ATPase activity; format: biochemical; conditions: by malachite green assay
T1 construct: The region encoding full-length Hsp90 was subcloned into pET28a; inferred from the pET28a vector and Ni-NTA purification; made in house; host or cells: E. coli
Description: The region encoding full-length Hsp90 was subcloned into pET28a. Protein expression in E. coli cells were induced with 0.5 mM IPTG. Cells were harvested after 20h of growth at 16°C and then disrupted by sonication. The soluble lysate was clarified by centrifugation and applied to a Ni^2+-nitrilo-triacetic acid (NTA) agarose column in a buffer (50 mM Tris-Cl, 300 mM NaCl, 10 mM Imidazole, 10% [v/v] Glycerol, 10 mM PMSF, 10 mM DTT). Hsp90 Protein was eluted with a linear gradient of 20–1000 mM imidazole. Hsp90 was identified by SDS-PAGE, and the high concentrated fraction was dialyzed against ATPase buffer (20 mM Tris-Cl, pH 7.5; 6 mM MgCl2; 20 mM KCl) and then aliquoted, frozen in liquid nitrogen, stored at −80°C.
The test compounds were diluted from mother plates (10 mM in 100% (v/v) DMSO) into daughter plates (200 μM in 2.0% (v/v) DMSO); 5 μL of test compound solution was added to each well (equivalent to a final concentration of 40 μM) of the 96-well assay plate. The first and last rows of the 96-well plate contained the appropriate concentration of DMSO were used as blank control. ATP was dissolved in the assay buffer to give a stock concentration of 2.5 mM and stored at room temperature. A 10 μL aliquot of ATP solution was added to each well to give a final assay concentration of 1 mM. Before the usage, Hsp90 protein was thawed on ice and suspended in chilled assay buffer to a stock concentration of 0.45 mg/mL, and the solution was kept on ice. The incubation was started by adding 10 μL of the stock Hsp90 to each well (except for the background wells which received 10 μL of assay buffer), giving a final assay volume of 25 μL. The plates were shaken for approximately 2 min and incubated for 3 h at 37°C.
The assay procedures were based on the literatures [33]–[35]. […] The reagent is initially dark brown, but on standing for ∼2 h at room temperature changes to a golden yellow and is ready for use. The assay buffer was 100 mM Tris–HCl, 20 mM KCl, 6 mM MgCl2, pH 7.4.
To stop the ATPase reactions, 80 μL of the malachite green reagent was added to each well.

Hsp90 [2] = molecular target: T1, Hsp90; experiment: ATP hydrolysis inhibition, ADP Hunter Plus (ADP fluorescence) assay; format: biochemical; conditions: by ADP fluorescence assay
Description: The first and last rows of the 96-well plate contained the appropriate concentration of DMSO were used as blank control. ATP was dissolved in the assay buffer to give a stock concentration of 2.5 mM and stored at room temperature. A 10 μL aliquot of ATP solution was added to each well to give a final assay concentration of 1 mM. Before the usage, Hsp90 protein was thawed on ice and suspended in chilled assay buffer to a stock concentration of 0.45 mg/mL, and the solution was kept on ice. […] The plates were shaken for approximately 2 min and incubated for 3 h at 37°C. The Discover RX ADP Hunter^TM Plus Assay kit (Discoverx, Fremont, CA) was used following the manufacturer's instructions. ATPase reactions were carried out after 3 h at 37°C temperature in presence of different concentrations of compounds. ADP generation was measured using Varioskan multimode microplate spectrophotometer (540 nm excitation and 620 nm emission). […] The background reaction rate was measured in a reaction lacking enzyme or substrate and subtracted from the experimental rates.

COc1ccccc1N1CCN(CC(O)COCCOc2ccc(Br)cc2)CC1 (centres unmarked) [Compound S13]
Hsp70 expression (MCF-7 cells): up-regulates | depletion of Hsp90-dependent client proteins (Her2, Src, Akt, ERK, c-Raf, Hif-1α) (MCF-7 cells): concentration-dependent | apoptosis induced (MCF-7; 10 μM, MCF-7 cells): over 50% | apoptosis-induced effects (MCF-7; MCF-7, 2, 5, 10 μM, 24 h): dose-dependent | apoptosis-induced effects (HCT116): dose-dependent | apoptosis-induced effects (SKBR3): dose-dependent | IC50 (Hsp90 [1]): 3.89 ± 0.54 µM | IC50 (Hsp90 [2]): 2.83 µM

— article PMC3615092, “Identification, Design and Bio-Evaluation of Novel Hsp90 Inhibitors by Ligand-Based Virtual Screening” (PLoS ONE, 2013)
